For assay [1], the target named is T1, human TYK2 (JH2domain-pseudokinase) (Homo sapiens, UniProt P29597).
T1 construct: host or cells: transiently transfected HEK293 cells; unpurified extract
Nature of the assay: TYK2 JH2 domain binding assay (KINOMEscan). The protocol: Binding constants for the compounds described herein against the JH2 domain were determined by the following protocol for a KINOMEscan® assay (DiscoveRx). A fusion protein of a partial length construct of human TYK2 (JH2domain-pseudokinase) (amino acids G556 to D888 based on reference sequence NP_003322.3) and the DNA binding domain of NFkB was expressed in transiently transfected HEK293 cells. From these HEK 293 cells, extracts were prepared in M-PER extraction buffer (Pierce) in the presence of Protease Inhibitor Cocktail Complete (Roche) and Phosphatase Inhibitor Cocktail Set II (Merck) per manufacturers' instructions. The TYK2 (JH2domain-pseudokinase) fusion protein was labeled with a chimeric double-stranded DNA tag containing the NFkB binding site fused to an amplicon for qPCR readout, which was added directly to the expression extract (the final concentration of DNA-tag in the binding reaction is 0.1 nM).
Streptavidin-coated magnetic beads (Dynal M280) were treated with a biotinylated small molecule ligand for 30 minutes at room temperature to generate affinity resins the binding assays. The liganded beads were blocked with excess biotin and washed with blocking buffer (SeaBlock (Pierce), 1% BSA, 0.05% Tween 20, 1 mM DTT) to remove unbound ligand and to reduce nonspecific binding.
The binding reaction was assembled by combining 16 μl of DNA-tagged kinase extract, 3.8 μl liganded affinity beads, and 0.18 μl test compound (PBS/0.05% Tween 20/10 mM DTT/0.1% BSA/2 μg/ml sonicated salmon sperm DNA)]. Extracts were used directly in binding assays without any enzyme purification steps at a ≥10,000-fold overall stock dilution (final DNA-tagged enzyme concentration <0.1 nM). Extracts were loaded with DNA-tag and diluted into the binding reaction in a two-step process. First extracts were diluted 1:100 in 1× binding buffer (PBS/0.05% Tween 20/10 mM DTT/0.1% BSA/2 μg/ml sonicated salmon sperm DNA) containing 10 nM DNA-tag. This dilution was allowed to equilibrate at room temperature for 15 minutes and then subsequently diluted 1:100 in 1× binding buffer. Test compounds were prepared as 111× stocks in 100% DMSO. Kds were determined using an 11-point 3-fold compound dilution series with three DMSO control points. All compounds for Kd measurements were distributed by acoustic transfer (non-contact dispensing) in 100% DMSO. The compounds were then diluted directly into the assays such that the final concentration of DMSO was 0.9%. All reactions were performed in polypropylene 384-well plates. Each was a final volume of 0.02 mL. Assays were incubated with shaking for 1 hour at room temperature. Then the beads were pelleted and washed with wash buffer (1×PBS, 0.05% Tween 20) to remove displaced kinase and test compound. The washed based were re-suspended in elution buffer (1×PBS, 0.05% Tween 20, 0.5 μM non-biotinylated affinity ligand) and incubated at room temperature with shaking for 30 minutes. The kinase concentration in the eluates was measured by qPCR. qPCR reactions were assembled by adding 2.5 μL of kinase eluate to 7.5 μL of qPCR master mix containing 0.15 μM amplicon primers and 0.15 μM amplicon probe. The qPCR protocol consisted of a 10 minute hot start at 95° C., followed by 35 cycles of 95° C. for 15 seconds, 60° C. for 1 minute.
Test compounds were prepared as 111× stocks in 100% DMSO. Kds were determined using an 11-point 3-fold compound dilution series with three DMSO control points. All compounds for Kd measurements were distributed by acoustic transfer (non-contact dispensing) in 100% DMSO. The compounds were then diluted directly into the assays such that the final concentration of DMSO was 0.9%. The Kds were determined using a compound top concentration of 30,000 nM. Kd measurements were performed in duplicate.
Binding constants (Kds) were calculated with a standard dose-response curve using the Hill equation: […]
The Hill Slope was set to −1. […]

Assay [2] has as its target T2, TYK2 JH1 (Homo sapiens, UniProt P29597).
T2 construct: TYK2 JH1
T2 sequence (P29597 897-1176 limits assumed): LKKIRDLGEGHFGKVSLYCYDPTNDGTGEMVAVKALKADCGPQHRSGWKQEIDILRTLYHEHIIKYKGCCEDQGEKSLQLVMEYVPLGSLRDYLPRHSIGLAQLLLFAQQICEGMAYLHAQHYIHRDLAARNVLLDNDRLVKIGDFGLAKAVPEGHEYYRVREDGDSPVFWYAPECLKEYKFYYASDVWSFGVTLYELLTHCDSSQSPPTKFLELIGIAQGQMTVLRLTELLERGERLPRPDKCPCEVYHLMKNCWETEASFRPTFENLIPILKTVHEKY
Nature of the assay: KINOMEscan binding, TYK2 JH1.

In assay [3] the target is T3, JAK3 JH1 (Homo sapiens, UniProt P52333).
T3 construct: JAK3 JH1
T3 sequence (P52333 822-1111 limits assumed): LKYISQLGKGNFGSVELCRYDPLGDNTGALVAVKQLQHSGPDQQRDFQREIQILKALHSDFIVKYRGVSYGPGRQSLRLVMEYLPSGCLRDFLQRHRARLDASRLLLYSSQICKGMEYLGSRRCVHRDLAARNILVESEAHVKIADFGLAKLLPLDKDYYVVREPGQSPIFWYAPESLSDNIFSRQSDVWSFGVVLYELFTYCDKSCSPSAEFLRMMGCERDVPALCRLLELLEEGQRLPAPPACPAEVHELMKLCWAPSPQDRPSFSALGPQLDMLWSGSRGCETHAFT
Description: KINOMEscan binding, JAK3 JH1.

Assay [4] concerns the target T4, JAK2 JH2 (Homo sapiens, UniProt O60674).
T4 construct: JAK2 JH2
Nature of the assay: KINOMEscan binding, JAK2 JH2.

In assay [5] the target is T5, JAK2 JH1 (Homo sapiens, UniProt O60674).
T5 construct: JAK2 JH1
T5 sequence (O60674 849-1124 limits assumed): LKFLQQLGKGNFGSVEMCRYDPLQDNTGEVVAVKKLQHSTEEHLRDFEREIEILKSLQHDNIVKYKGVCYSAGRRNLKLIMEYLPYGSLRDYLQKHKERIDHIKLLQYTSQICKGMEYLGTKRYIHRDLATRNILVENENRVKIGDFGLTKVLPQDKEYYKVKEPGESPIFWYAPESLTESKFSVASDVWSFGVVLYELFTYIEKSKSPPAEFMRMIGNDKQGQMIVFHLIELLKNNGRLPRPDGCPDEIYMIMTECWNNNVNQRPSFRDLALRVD
Nature of the assay: KINOMEscan binding, JAK2 JH1.

Assay [6] deals with T6, JAK1 JH2 (Homo sapiens, UniProt P23458).
T6 construct: JAK1 JH2
T6 sequence (P23458 583-855 limits assumed): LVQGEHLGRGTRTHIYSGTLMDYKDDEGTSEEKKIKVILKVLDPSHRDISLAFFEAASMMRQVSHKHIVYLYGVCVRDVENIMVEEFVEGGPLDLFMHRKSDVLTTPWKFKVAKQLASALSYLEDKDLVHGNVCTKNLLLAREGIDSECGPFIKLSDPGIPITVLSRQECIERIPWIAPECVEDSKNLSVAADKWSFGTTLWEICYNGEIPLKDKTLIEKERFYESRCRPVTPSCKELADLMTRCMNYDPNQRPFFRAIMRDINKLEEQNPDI
Description: KINOMEscan binding, JAK1 JH2.

The target of assay [7] is T7, JAK1 JH1 (Homo sapiens, UniProt P23458).
T7 construct: JAK1 JH1
T7 sequence (P23458 875-1153 limits assumed): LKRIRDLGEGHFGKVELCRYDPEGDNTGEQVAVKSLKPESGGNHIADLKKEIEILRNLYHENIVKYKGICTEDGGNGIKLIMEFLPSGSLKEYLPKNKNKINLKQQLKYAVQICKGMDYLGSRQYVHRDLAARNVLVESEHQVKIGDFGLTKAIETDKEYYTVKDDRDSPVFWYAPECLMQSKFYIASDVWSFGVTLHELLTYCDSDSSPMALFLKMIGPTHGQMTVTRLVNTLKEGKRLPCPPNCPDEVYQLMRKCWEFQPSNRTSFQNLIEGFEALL
Description: KINOMEscan binding, JAK1 JH1.

Assay [8] has as its system IFNa, PBMCs, p-STAT3. Description: IFNa induced p-STAT3 in PBMCs. The settings on record: PBMC; human PBMCs, IFNa stimulation. Format: cell-based.
Assay [9] concerns IFNa, PBMCs, p-STAT5. Nature of the assay: INFα induced pSTAT5 in human PBMC. The settings on record: 0.25 h, IFNa 5000 units/ml, 15 minutes. Format: cell-based. On the procedure:
Fresh Human PBMCs were resuspended in RPMI 1640 medium with 10% FBS. Cells were seeded in a round bottom 96-well plate at the concentration of 200,000 cells/well. A 10-point dilution series of test compound (top dose 10 uM, 1:5 dilution) was added to the well using the liquid dispenser (Tecan D300e) and incubated for 1 hour at 37 C. Then human INFα recombinant protein (R&D Systems) was added to the well at the final concentration of 5000 units/ml and incubated for 15 minutes at 37 C. Cell lysates were prepared and analyzed by Phospho STAT5 (Tyr693) Kit (Meso Scale Discovery) following manufacturer's protocol.
For calculation of the inhibition rate, the relative pSTAT5 signal of each well=pSTAT5 signal of each well−the average pSTAT5 signal of baseline.
The inhibition %=(the average pSTAT5 signal of INFα treatment wells−the relative of pSTAT5 signal in each compound containing well)/the average pSTAT5 signal of INFα treatment wells*100%
The curve was plotted as the inhibition % (y-axis) vs. compounds concentration (x-axis) and is fitted with log (inhibitor) vs. normalized response—Variable slope by GraphPad Prism7.0.

What is called Kd is the constant that tells how readily two partners part at equilibrium. Read a high Kd as weaker binding. Usually IC50 stands for the concentration that gives 50% inhibition. A low value points to greater potency.

T1 sequence (P29597 556-888): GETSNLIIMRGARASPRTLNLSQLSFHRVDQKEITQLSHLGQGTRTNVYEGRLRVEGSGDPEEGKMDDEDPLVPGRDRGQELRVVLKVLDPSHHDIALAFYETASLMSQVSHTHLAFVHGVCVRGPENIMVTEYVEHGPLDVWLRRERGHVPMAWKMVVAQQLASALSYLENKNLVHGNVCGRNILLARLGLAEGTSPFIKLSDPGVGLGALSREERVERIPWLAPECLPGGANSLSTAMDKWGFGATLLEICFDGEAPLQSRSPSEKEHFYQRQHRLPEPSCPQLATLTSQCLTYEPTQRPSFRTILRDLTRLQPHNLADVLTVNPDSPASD
T4 sequence (O60674 545-809 limits assumed): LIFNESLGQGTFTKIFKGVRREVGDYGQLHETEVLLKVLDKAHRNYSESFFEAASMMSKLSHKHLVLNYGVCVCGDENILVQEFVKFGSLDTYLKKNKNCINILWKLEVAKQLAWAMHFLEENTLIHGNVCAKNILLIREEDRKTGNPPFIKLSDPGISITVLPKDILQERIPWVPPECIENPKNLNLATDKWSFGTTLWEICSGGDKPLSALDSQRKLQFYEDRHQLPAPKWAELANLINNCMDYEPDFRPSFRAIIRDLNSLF

As for `[2H]C1([2H])O[C@@H]2CCC[C@H]2NC(=O)c2cnc3c(NC)cc(nn23)Nc2cc1cc1c2nnn1C` [Compound 50], the Kd is below 0.01 µM in [1]; at least 30 µM in assay [2]; 1 to 10 µM in assay [3]; 1 to 10 µM in [4]; 10 to 30 µM in assay [5]; 1 to 10 µM in [6]. Moreover, the Kd in assay [7] was at least 30 µM.

Regarding `CNc1cc2nn3c(cnc13)C(=O)N[C@@H]1CCC[C@H]1OCc1cc(c3nnn(C)c3c1)N2` [Compound 1], the dissociation constant (Kd) was below 0.01 µM in assay [1]; 10 to 30 µM in [3]; 1 to 10 µM in assay [4]; at least 30 µM in assay [5]; at least 30 µM in assay [7]. Besides, the IC50 in assay [8] and in assay [9] was below 0.1 µM in each case.

Turning to `CNc1cc2nn3c(cnc13)C(=O)N[C@@H]1CCC[C@H]1OCc1cc(c3c(c1)nnn3C)N2` [Compound 3], the Kd in [1] was below 0.01 µM; in [2], at least 30 µM; in assay [3] it was at least 30 µM; in assay [4], at least 30 µM; in assay [5], at least 30 µM; in [6], 10 to 30 µM. For the same compound, the Kd in assay [7] was at least 30 µM.

Turning to `[2H]C1([2H])O[C@H]2CCC[C@H]2NC(=O)c2cnc3c(NC)cc(nn23)Nc2cc1cc1c2nnn1C` [Compound 51], the dissociation constant (Kd) is below 0.01 µM in [1]; at least 30 µM in assay [2]; 10 to 30 µM in assay [3]; 1 to 10 µM in assay [4]; at least 30 µM in assay [5]; 0.01 to 1 µM in [6]. Besides, in assay [7], the Kd was at least 30 µM.

For the compound “(1^3E,1^4E,3^4E,6^1R,6^2R)-3^2-Methyl-1^7-(methylamino)-3^2H-5-oxa-2,7-diaza-1(5,3),3(4,6)-dipyrazolo[1,5-a]pyrimidina-6(1,2)-cyclopentanacyclooctaphan-8-one [Compound 10]”, the results for the Kd in assay [1], in assay [2] and in [6] were below 0.01 µM, at least 30 µM and 1 to 10 µM, respectively.

With `CNc1cc2nn3c(cnc13)Nc1cc(cc3c1ncn3C)COC1CCCC1NC2=O` (stereo not shown) [Compound 12, (6^1R,6^2R,E)-3^1-Methyl-1^8-(methylamino)-3^1H-5-oxa-2,7-diaza-1(6,3)-imidazo[1,2-b]pyridazina-3(4,6)-benzo[d]imidazola-6(1,2)-cyclopentanacyclooctaphan-8-one], the Kd in [1] was below 0.01 µM; in [2] it was at least 30 µM; in [6], 10 to 30 µM.

Turning to `CNc1cc2nn3c(cnc13)C(=O)N[C@@H]1CCC[C@@H]1OCc1cc(c3nnn(C)c3c1)N2` [Compound 5], the Kd was below 0.01 µM in [1]; at least 30 µM in [2]; at least 30 µM in assay [3]; 1 to 10 µM in [4]; at least 30 µM in assay [5]; 0.01 to 1 µM in assay [6]. In assay [7], this compound returned an equilibrium dissociation constant (Kd) of at least 30 µM.

As to “(1^3E,1^4E,6^1R,6^2R)-3^1-Methyl-1^7-(methylamino)-3^1H-5-oxa-2,7-diaza-1(5,3),3(4,6)-dipyrazolo[1,5-a]pyrimidina-6(1,2)-cyclopentanacyclooctaphan-8-one [Compound 2]”, the Kd in [1] was below 0.01 µM; in assay [2] it was at least 30 µM; in assay [6] it was 1 to 10 µM.

With `CNc1cc2nn3c(cnc13)C(=O)N[C@@H]1CCC[C@@H]1OCc1cc(c3c(c1)nnn3C)N2` [Compound 6, (6^1S,6^2R,E)-3^1-Methyl-1^8-(methylamino)-3^1H-5-oxa-2,7-diaza-1(6,3),3(7,5)-diimidazo[1,2-b]pyridazina-6(1,2)-cyclopentanacyclooctaphan-8-one], the dissociation constant Kd is below 0.01 µM in assay [1]; at least 30 µM in [2]; at least 30 µM in [3]; 1 to 10 µM in [4]; at least 30 µM in assay [5]; 0.01 to 1 µM in [6]. Further, the Kd in [7] is at least 30 µM.

With `CNc1cc2nc3c(cnn13)C(=O)N[C@@H]1CCC[C@@H]1OCc1cc(c3nnn(C)c3c1)N2` [Compound 9], the values for the Kd in [1], in [2] and in [6] were below 0.01 µM, at least 30 µM and 0.01 to 1 µM, respectively.

“(1^3E,1^4E,6^1S,6^2R)-3^1-Methyl-1^7-(methylamino)-3^1H-5-oxa-2,7-diaza-1(5,3),3(4,6)-dipyrazolo[1,5-a]pyrimidina-6(1,2)-cyclopentanacyclooctaphan-8-one [Compound 11]”: the Kd in assay [1] is below 0.01 µM; in assay [2], at least 30 µM; in assay [6], 0.01 to 1 µM.

In the case of `CNc1cc2nc3c(cnn13)C(=O)N1CC[C@H](C1)OCc1cc(c3nnn(C)c3c1)N2` [Compound 44], the Kd in assay [1] was below 0.01 µM; in assay [2], at least 30 µM; in [6] it was 1 to 10 µM.

Regarding `CNc1cc2nc3c(cnn13)C(=O)N[C@@H]1CCC[C@H]1OCc1cc(c3nn(C)nc3c1)N2` [Compound 8], the results for the equilibrium dissociation constant (Kd) in [1], in [2] and in [6] were below 0.01 µM, 10 to 30 µM and 0.01 to 1 µM, respectively.

Consider `CNc1cc2nn3c(cnc13)C(=O)N[C@@H]1CCC[C@@H]1OCc1cc(c3nn(C)nc3c1)N2` [Compound 7], for which the Kd in assay [1] was below 0.01 µM; in assay [2] it was at least 30 µM; in assay [3], at least 30 µM; in assay [4], 10 to 30 µM; in assay [5] it was at least 30 µM; in [6], 0.01 to 1 µM. This compound also returned a Kd in assay [7] of at least 30 µM.

Take `CNc1cc2nc3c(cnn13)C(=O)N1CC[C@@H](C1)OCc1cc(c3nnn(C)c3c1)N2` [Compound 45]: the values for the Kd in assay [1], in [2] and in [6] were below 0.01 µM, at least 30 µM and 1 to 10 µM, respectively.

For the compound `CNc1cc2nn3c(cnc13)C(=O)N[C@@H]1CCC[C@H]1OCc1cc(c3nnn(C)c3c1)N2` [Compound 49], the Kd in assay [1] is below 0.01 µM; in [2] it was at least 30 µM; in [6], 1 to 10 µM.

These data come from US20250188093A1, “TYK2 INHIBITORS AND USES THEREOF” (Alumis Inc., priority 2022, published 2025).
